# Values of other authors in patent publication US20050250788A1, “Aqueous outflow enhancement with vasodilated aqueous cavity” (priority 2004, published 2005).
# Counter-ions that a name gives are not always drawn.
# Key:
# [1] = at low concentrations
# [2] = not given; remark: listed apart in the source
# [3] = chronic, patients with essential hypertension
# [4] = for area under the plasma concentration time curve / mean peak plasma concentration (C(max)): multiple oral once-daily doses of 200 mg
# [5] = not given; remark: listed apart in the source
# [6] = system: adrenergic (alpha(1), alpha(2) and beta), cholinergic, GABA, dopaminergic, histaminergic, serotonergic (5-HT1A, 5-HT1B, 5-HT2) or benzodiazepine binding sites
# [7] = system: norepinephrine and dopamine neuronal reuptake
# [8] = placebo-controlled, normal volunteers
# [9] = topical
compound,measurement,setting,value
COc1ccccc1OCCNCC(O)c1ccc(C)c(S(N)(=O)=O)c1 (stereo not drawn) [5-[1-hydroxy-2-[2-(2-methoxyphenoxyl)ethylamino]ethyl]-2-methylbenzenesulfonamide],intraocular pressure reducing activity,[1],excellent intraocular pressure reducing activity
CC[C@@H]1C(=O)OC[C@@H]1Cc1cncn1C [Pilocarpine],output of clear fluid after administration into a glaucomatous eye,,increase the output of clear fluid
"CN[C@H]1CC[C@@H](c2ccc(Cl)c(Cl)c2)c2ccccc21 [Sertraline hydrochloride, (1S-cis)-4-(3,4-dichlorophenyl)-1,2,3,4-tetrahydro-N-methyl-1-nanphthalenamine hydrochloride]",solubility in ethanol,[2]; ethanol,sparingly soluble
same,solubility in isopropyl alcohol,[2]; isopropyl alcohol,slightly soluble
same,solubility in water,[2]; water,slightly soluble
C[C@H](CS)C(=O)N1CCC[C@H]1C(=O)O [captopril],decrease in mean arterial pressure compared with placebo baseline,[3],equivalent decreases
N[C@H]1CC[C@@H](c2ccc(Cl)c(Cl)c2)c2ccccc21 [desmethylsertraline],elevation of plasma levels in the elderly,"[4]; elderly, following multiple dosing",3 fold
same,half-life,"[4]; metabolite, multiple oral once-daily doses of 200 mg sertraline",65 h
same,area under the plasma concentration time curve,[4],2300 ng·h/mL
same,mean peak plasma concentration (C(max)),[4],140 ng/mL
CNC(=O)Oc1ccc2c(c1)[C@]1(C)CCN(C)[C@@H]1N2C [eserine],output of clear fluid after administration into a glaucomatous eye,,increase the output of clear fluid
CC(N/C(=N\C#N)Nc1ccncc1)C(C)(C)C (stereo not drawn) [pinacidil],decrease in mean arterial pressure compared with placebo baseline,[3],equivalent decreases
COc1cc2nc(N3CCN(C(=O)c4ccco4)CC3)nc(N)c2cc1OC [prazosin],decrease in mean arterial pressure compared with placebo baseline,[3],equivalent decreases
CN[C@H]1CC[C@@H](c2ccc(Cl)c(Cl)c2)c2ccccc21 [sertraline],dose proportionality,[4]; clinical dose range of 50 to 200 mg/day,Linear dose proportionality
same,area under the plasma concentration time curve,[4],2800 ng·h/mL
same,mean peak plasma concentration (C(max)),[4],190 ng/mL
same,increase of bioavailability by food,"[4]; oral, with food",about 40%
same,average terminal elimination half-life,[4]; single or multiple oral once-daily doses of 50 to 400 mg/day,approximately 26 hours
same,plasma protein bound,[5],Approximately 98%
same,affinity for binding sites,[6],no significant affinity
same,effects on norepinephrine and dopamine neuronal reuptake,[7],only very weak effects
same,psychomotor performance,[8],did not interfere with psychomotor performance
same,sedation,[8],did not cause sedation
cyclosporin-A,post-surgical increases in intraocular pressure,[9],reduce post-surgical increases in intraocular pressure
